Source: patent US20140242609A1, “Diagnosis and treatment of kidney stones, methods and compositions therefor” (Washington University, priority 2013, published 2014)
Entries after “also recorded” stand apart in the source; their conditions may differ.

Tests used:
[1] = urinary Ca++ and Mg++ levels (ratios to creatinine) in spot urine collections; type: in vivo, mouse; conditions: 5 mg/kg BW−1
Experimental: Mice were housed individually in metabolic cages (Harvard Apparatus) with free access to water and food for 24 hr. Urine was collected under mineral oil. The plasma and urine Ca^++ and Mg^++ levels were determined with atomic flame absorption spectrophotometer (PerkinElmer). The creatinine levels were measured with an enzymatic method that was independent of plasma chromogens. (Gong Y, et al., 2013) The fractional excretion of electrolytes was calculated using the following equation FEion=V×Uion/(GFR×Pion), where GFR was calculated according to the clearance rate of creatinine (GFR=V×Ucreatinine/Pcreatinine).
In these experiments, the inventors gave wild-type C57BL/6 mice SAHA treatments at 5 mg/kg BW^−1 and traced urinary Ca^++ and Mg^++ levels (as ratios to creatinine) from 4 hr to 12 hr in spot urine collections. Consistent with the downregulation of CLDN14 gene expression at 4 hrs, the urinary excretion of Ca^++ and Mg^++ was reduced by 47% and 40% respectively (p<0.01, n=5 versus vehicle, FIG. 19A-B).

[2] = tested on: claudin-14 promoter; assay: lacZ reporter of endogenous claudin-14 promoter activity in claudin-14+/lacZ mice; type: in vivo, mouse
Experimental: (§1) The inventors also sought for alternative mechanisms for claudin-14 gene regulation. Because the claudin-14 KO mouse was generated with a lacZ reporter gene replacing the last exon of claudin-14 gene (including the coding region and 3″-UTR) (Ben-Yosef et al., 2003), the expression of lacZ gene would provide a faithful measurement for endogenous claudin-14 promoter activity regardless of any microRNA based regulation. The claudin-14^+/lacZ mice were treated with cinacalcet or NPS2143 as described for WT mice.
as §1, with “explored” for “also sought for”, “3′-UTR; Ben-Yosef, T.,” for “3″-UTR) (Ben-Yosef”, “2003)” for “2003),”

[3] = tested on: claudin-14 protein; assay: claudin-14 immunostaining, tight junction localization in mouse kidney sections; type: in vivo; conditions: 30 mg/kg BW−1
Experimental: (§2) For viewing claudin localization in the kidney, fresh cryostat sections (10 μm) were fixed with cold methanol at −20° C., followed by blocking with PBS containing 10% FBS, incubation with primary antibody (1:300) and FITC-labeled secondary antibody (1:200). After washing with PBS, slides were mounted with Mowiol (Calbiochem). Epifluorescence images were taken with a Nikon 80i photomicroscope equipped with a DS-QilMc digital camera. All images were converted to TIFF format and arranged using Photoshop CS4 (Adobe).
as §2, with “DS-Qi1Mc” for “DS-QilMc”

[4] = 1 hr renal clearance measurements (FITC-inulin), plasma and urine electrolytes; type: in vivo, mouse
Experimental: (§3) The method for performing renal clearance measurements in the mouse has been described by Hou et al., (2007; 2009). Mice were anesthetized by i.p. injection of Inactin (Sigma; 100 mg/kg). The jugular vein was catheterized for i.v. infusion of 0.9% saline at 2 μL/min, with 1% FITC-inulin included in the infusate. After an equilibration period of 60 min, renal clearance measurements were carried out for a 60 min period. Urine was collected under mineral oil, and 30 μL blood sample was taken at hourly intervals. Urine and plasma Ca^2+ and Mg^2+ concentrations were measured by atomic flame absorption spectrophotometer (PerkinElmer). Urine and plasma FITC-inulin levels were measured in 100 mM HEPES buffer (pH7.0) with fluorescence spectrophotometer (BioTek). The fractional excretion of electrolytes was calculated using the following equation FEion=V×Uion/(GFR×Pion), where GFR was calculated according to the clearance rate of FITC-inulin (GFR=V×Uinulin/Pinulin).
as §3, with “Hou, J.,” for “Hou”, “2007 and Hou, J., et al., 2009.” for “(2007; 2009).”, “(Sigma:” for “(Sigma;”, “Ca^++” for “Ca^2+”, “Mg^++” for “Mg^2+”, “(PerkinEhner).” for “(PerkinElmer).”

[5] = WT + CsA (25 mg/kg BW−1 per day, 6 days), 2 hr, Veh = CsA alone
[6] = WT, 2 hr, single dose 30 mg/kg BW−1
[7] = WT, 2 hr, single dose 30 mg/kg BW−1, 30 mg/kg
[8] = WT, 2 hr, single dose 30 mg/kg BW−1, listed as Cina, 30 mg/kg
[9] = WT, 8 hr, single dose 30 mg/kg BW−1
[10] = claudin-14 KO, 2 hr, single dose 30 mg/kg BW−1
[11] = WT, 2 hr, single dose 30 mg/kg BW−1, listed as NPS, 30 mg/kg

Structure (SMILES)	claudin-14 staining in tight junctions of TALH tubules [3]	ECa [4, 5] [ug/hr · g]	FECa (fractional excretion of Ca++) [4, 5] [%]	FEMg (fractional excretion of Mg++) [4, 5] [%]	PCa (plasma Ca++ concentration) [4, 5] [mg/dL]	PMg (plasma Mg++ concentration) [4, 5] [mg/dL]	ECa [4, 6] [ug/hr · g]	EMg [4, 6] [ug/hr · g]	FEMg (fractional excretion of Mg++) [4, 6] [%]	PMg (plasma Mg++ concentration) [4, 6] [mg/dL]	FECa (fractional excretion of Ca++) [4, 7] [%]	PCa (plasma Ca++ concentration) [4, 7] [mg/dL]	ECa [4, 9] [ug/hr · g]	EMg [4, 9] [ug/hr · g]	FECa (fractional excretion of Ca++) [4, 9] [%]	FEMg (fractional excretion of Mg++) [4, 9] [%]	PCa (plasma Ca++ concentration) [4, 9] [mg/dL]	PMg (plasma Mg++ concentration) [4, 9] [mg/dL]	ECa [4, 10] [ug/hr · g]	EMg [4, 10] [ug/hr · g]	further results
O=C(CCCCCCC(=O)Nc1ccccc1)NO [SAHA, Suberanilohydroxamic acid]	–	–	–	–	–	–	–	–	–	–	–	–	–	–	–	–	–	–	–	–	urinary excretion of Ca++, reduction ([1]; 4 hrs, versus vehicle): 47%; urinary excretion of Mg++, reduction ([1]; 4 hrs, versus vehicle): 40%; effects on urinary Ca++ and Mg++ levels ([1]; after 12 hrs): completely lost; urinary Ca++ excretion ([1]; by 8 hrs): hypocalciuria was pronounced; urinary magnesium excretion ([1]; by 8 hrs): recovered to the vehicle level; lacZ mRNA levels ([2]; 25 mg/kg BW−1, 4 hrs): no significant change
C[C@@H](NCCCc1cccc(C(F)(F)F)c1)c1cccc2ccccc12 [cinacalcet]	profoundly upregulated claudin-14 protein levels in the tight junction	0.79 ± 0.07	1.93 ± 0.20	14.47 ± 1.13	8.09 ± 0.32	1.58 ± 0.04	1.33 ± 0.13	2.32 ± 0.26	28.14 ± 2.93	1.96 ± 0.04	3.82±0.52	8.44 ± 0.27	0.22 ± 0.02	1.25 ± 0.09	0.88 ± 0.14	18.80 ± 1.48	9.58 ± 0.21	2.44 ± 0.16	0.31 ± 0.03	1.12 ± 0.03	FECa (fractional excretion of Ca++) [4, 8]: 3.82 ± 0.52 %; PCa (plasma Ca++ concentration) [4, 8]: 8.44 ± 0.27 mg/dL; FECa (fractional excretion of Ca++) [4, 10]: 1.08 ± 0.26%; FEMg (fractional excretion of Mg++) [4, 10]: 12.35 ± 2.21%; PCa (plasma Ca++ concentration) [4, 10]: 8.47 ± 0.09 mg/dL; PMg (plasma Mg++ concentration) [4, 10]: 2.64 ± 0.10 mg/dL; cinacalcet induced hypercalciuria, level higher than vehicle ([4]; cyclosporine-A pre-treated animals, 2 hrs): 1.93 fold; lacZ mRNA levels ([2]; claudin-14+/lacZ mouse kidneys, single-dose 30 mg/kg BW−1, 2 hrs): no change; β-galactosidase activity ([2]; isolated TALH cells of claudin-14+/lacZ mice, single-dose 30 mg/kg BW−1, 2 hrs): no change
CC(C)(Cc1ccc2ccccc2c1)NC[C@@H](O)COc1cccc(Cl)c1C#N [NPS2143]	reduced the staining signal for claudin-14 to punctate foci; also recorded: reduced the staining signal for claudin-14 to punctuate foci	0.38 ± 0.02	0.95 ± 0.14	11.96 ± 2.27	10.50 ± 0.18	1.67 ± 0.02	0.06 ± 0.01	1.04 ± 0.06	7.59 ± 0.32	2.74 ± 0.15	0.09±0.01	11.15 ± 0.21	0.25 ± 0.04	1.41 ± 0.18	0.58 ± 0.11	14.88 ± 2.63	10.63 ± 0.43	2.37 ± 0.09	0.25 ± 0.09	1.02 ± 0.12	EMg [4, 5]: 0.80 ± 0.19 ug/hr · g; FECa (fractional excretion of Ca++) [4, 11]: 0.09 ± 0.01 %; PCa (plasma Ca++ concentration) [4, 11]: 11.15 ± 0.21 mg/dL; FECa (fractional excretion of Ca++) [4, 10]: 0.74 ± 0.26%; FEMg (fractional excretion of Mg++) [4, 10]: 10.71 ± 2.16%; PCa (plasma Ca++ concentration) [4, 10]: 10.22 ± 0.30 mg/dL; PMg (plasma Mg++ concentration) [4, 10]: 2.88 ± 0.12 mg/dL
